Results from patent US11472814B2, “Thienopyranones and furanopyranones as checkpoint inhibitors and modulators of anti-tumor immunity” (SignalRx Pharmaceuticals, Inc., priority 2017, dated 2022).
Where a name gives a salt, the structure may show the parent alone. Read-outs that look alike come from different tables or passages of the source. One block for each compound: values may come before it.

Tests used:
SYK = molecular target: T1, SYK (Homo sapiens, UniProt P43405); assay: SYK inhibition IC50 (Reaction Biology Corp.); format: biochemical
T1 construct: purchased Reaction Biology Corp., Malvern, Pa; (contract assay service)
Text: (§1) The inhibitory activity of a compound of the invention against PI3K and/or BRD4 and/or SYK and/or CDK4/6 can be readily determined using methods known to the skilled artisan, or by commercial vendors offering such services. […] In vivo, PI3K inhibition can be determined from target tissue biopsies by standard tissue processing to disrupt cells and then performing Western Blot analysis to determine the presence or absence of pAKT (substrate of PI3K) relative to a control sample. The activity of a compound of the invention as an inhibitor of a bromodomain-containing protein, such as a BET protein, such as BRD2, BRD3, BRD4, and/or BRDT, or an isoform or mutant thereof, may be determined in vitro, in vivo, or in a cell line. In vitro assays include assays that determine inhibition of bromodomain-containing proteins. Alternatively, inhibitor binding may be determined by running a competition experiment where a provided compound is incubated with a bromodomain-containing protein, such as a BET protein bound to known ligands, labeled or unlabeled. For example, bromodomain inhibition can be determined in vitro using Alpha Screen Technology (http://www.reactionbiologv.com/webapps/site/NewsPDFs/Bromodomain%20Assay %20Platform %20for %20Drug %20Screening %20and %20Discovery.pdf). In vivo bromodomain inhibition can be determined indirectly by evaluating the amount of protein present of proteins whose genes' transcription is influenced or controlled by the bromodomain protein, for example, the MYCN protein transcription is controlled by BRD4 (J. E. Delmore et al., Cell 2011, 146, 904-917; A. Puissant, Cancer Discov. 2013, 3, 308-323). Bromodomain inhibition may also be predicted by in silico modeling as described below in the Examples. Additionally, the company Promega offers a SYK luminescent assay to determine a compound's ability to inhibit the SYK protein (https://www.promega.com/-/media/files/resources/protocols/kinase-enzyme-appnotes/syk-kinase-assay-protocol.pdf?la=en).
Compounds of the invention were characterized for their ability to inhibit target proteins using third party vendors offering such services. PI3K alpha, gamma, and delta inhibition activity was determined by Thermo Fisher Scientific-Biosciences Life Sciences Solutions, Madison, Wis. The bromodomain protein inhibition (binding domain 1 and 2 of BRD4) as well as SYK inhibition was determined at Reaction Biology Corp., Malvern, Pa. Additional information on each of the assays performed and services provided is available at each company's website on the internet (https://www.thermofisher.com/us/en/home/life-science.html and http://www.reactionbiology.com/webapps/site, respectively). The IC50 data (shown below in Table 5) was calculated from a 10-point curve and is expressed in nanomolar concentration (nM) rounded off to the nearest whole number. Where multiple values were obtained the range from lowest to highest values is presented. NI=no inhibition detected up to 50 uM or IC50 not reached at 50 uM.

PI3K γ = molecular target: T2, PI3K γ (Homo sapiens, UniProt P48736); assay: PI3K gamma inhibition IC50 (Thermo Fisher); format: biochemical; details: 10-point curve
T2 construct: purchased Thermo Fisher Scientific-Biosciences Life Sciences Solutions, Madison, Wis; (contract assay service)
T2 sequence (P48736 whole entry): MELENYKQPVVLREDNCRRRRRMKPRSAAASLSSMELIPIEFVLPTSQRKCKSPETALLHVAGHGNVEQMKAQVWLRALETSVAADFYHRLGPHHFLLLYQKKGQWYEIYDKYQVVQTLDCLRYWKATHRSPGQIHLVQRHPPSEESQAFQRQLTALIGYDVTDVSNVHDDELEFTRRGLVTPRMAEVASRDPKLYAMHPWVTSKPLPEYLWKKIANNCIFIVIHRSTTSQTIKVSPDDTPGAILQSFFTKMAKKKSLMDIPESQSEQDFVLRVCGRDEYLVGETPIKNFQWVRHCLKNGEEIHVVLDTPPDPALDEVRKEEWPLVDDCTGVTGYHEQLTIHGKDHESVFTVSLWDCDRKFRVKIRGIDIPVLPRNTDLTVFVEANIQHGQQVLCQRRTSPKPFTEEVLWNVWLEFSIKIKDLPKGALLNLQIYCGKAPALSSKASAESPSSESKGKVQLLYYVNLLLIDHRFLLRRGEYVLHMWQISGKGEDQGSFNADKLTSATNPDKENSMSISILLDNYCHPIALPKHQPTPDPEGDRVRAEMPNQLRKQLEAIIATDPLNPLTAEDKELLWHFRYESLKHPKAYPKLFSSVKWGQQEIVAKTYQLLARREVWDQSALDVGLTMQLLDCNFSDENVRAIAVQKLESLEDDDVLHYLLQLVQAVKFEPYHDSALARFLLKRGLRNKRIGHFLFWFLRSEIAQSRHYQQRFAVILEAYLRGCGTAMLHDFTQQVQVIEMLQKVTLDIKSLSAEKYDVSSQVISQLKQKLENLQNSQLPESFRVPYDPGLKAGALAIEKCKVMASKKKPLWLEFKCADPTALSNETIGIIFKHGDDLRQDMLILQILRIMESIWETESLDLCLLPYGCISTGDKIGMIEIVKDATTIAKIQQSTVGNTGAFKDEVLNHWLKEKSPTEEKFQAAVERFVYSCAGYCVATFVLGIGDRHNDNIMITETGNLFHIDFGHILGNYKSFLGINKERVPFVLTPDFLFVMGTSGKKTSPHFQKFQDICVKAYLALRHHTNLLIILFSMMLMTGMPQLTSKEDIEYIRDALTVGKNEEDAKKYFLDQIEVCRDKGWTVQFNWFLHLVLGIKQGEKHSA
Text: as §1
(§2) Compounds of the invention were characterized for their ability to inhibit target proteins using third party vendors offering such services. PI3K alpha, gamma, and delta inhibition activity was determined by Thermo Fisher Scientific-Biosciences Life Sciences Solutions, Madison, Wis. The bromodomain protein inhibition (binding domain 1 and 2 of BRD4) as well as SYK inhibition was determined at Reaction Biology Corp., Malvern, Pa. […] The IC50 data (shown below in Table 5) was calculated from a 10-point curve and is expressed in nanomolar concentration (nM) rounded off to the nearest whole number. […]

BRD4-2 = molecular target: T3, BRD4-2 (Homo sapiens, UniProt O60885); assay: Bromodomain protein inhibition IC50, binding domain 2 of BRD4 (Reaction Biology Corp.); details: 10-point curve
T3 construct: purchased Reaction Biology Corp., Malvern, Pa; (contract assay service)
Text: as §1, §2

BRD4-1 = molecular target: T4, BRD4-1 (Homo sapiens, UniProt O60885); assay: Bromodomain protein inhibition IC50, binding domain 1 of BRD4 (Reaction Biology Corp.); details: 10-point curve
T4 construct: purchased Reaction Biology Corp., Malvern, Pa; (contract assay service)
Text: as §1, §2

PI3K α = molecular target: T5, PI3K α (Homo sapiens, UniProt P42336); assay: PI3K alpha inhibition IC50 (Thermo Fisher); format: biochemical; details: 10-point curve
T5 construct: purchased Thermo Fisher Scientific-Biosciences Life Sciences Solutions, Madison, Wis; (contract assay service)
T5 sequence (P42336 whole entry): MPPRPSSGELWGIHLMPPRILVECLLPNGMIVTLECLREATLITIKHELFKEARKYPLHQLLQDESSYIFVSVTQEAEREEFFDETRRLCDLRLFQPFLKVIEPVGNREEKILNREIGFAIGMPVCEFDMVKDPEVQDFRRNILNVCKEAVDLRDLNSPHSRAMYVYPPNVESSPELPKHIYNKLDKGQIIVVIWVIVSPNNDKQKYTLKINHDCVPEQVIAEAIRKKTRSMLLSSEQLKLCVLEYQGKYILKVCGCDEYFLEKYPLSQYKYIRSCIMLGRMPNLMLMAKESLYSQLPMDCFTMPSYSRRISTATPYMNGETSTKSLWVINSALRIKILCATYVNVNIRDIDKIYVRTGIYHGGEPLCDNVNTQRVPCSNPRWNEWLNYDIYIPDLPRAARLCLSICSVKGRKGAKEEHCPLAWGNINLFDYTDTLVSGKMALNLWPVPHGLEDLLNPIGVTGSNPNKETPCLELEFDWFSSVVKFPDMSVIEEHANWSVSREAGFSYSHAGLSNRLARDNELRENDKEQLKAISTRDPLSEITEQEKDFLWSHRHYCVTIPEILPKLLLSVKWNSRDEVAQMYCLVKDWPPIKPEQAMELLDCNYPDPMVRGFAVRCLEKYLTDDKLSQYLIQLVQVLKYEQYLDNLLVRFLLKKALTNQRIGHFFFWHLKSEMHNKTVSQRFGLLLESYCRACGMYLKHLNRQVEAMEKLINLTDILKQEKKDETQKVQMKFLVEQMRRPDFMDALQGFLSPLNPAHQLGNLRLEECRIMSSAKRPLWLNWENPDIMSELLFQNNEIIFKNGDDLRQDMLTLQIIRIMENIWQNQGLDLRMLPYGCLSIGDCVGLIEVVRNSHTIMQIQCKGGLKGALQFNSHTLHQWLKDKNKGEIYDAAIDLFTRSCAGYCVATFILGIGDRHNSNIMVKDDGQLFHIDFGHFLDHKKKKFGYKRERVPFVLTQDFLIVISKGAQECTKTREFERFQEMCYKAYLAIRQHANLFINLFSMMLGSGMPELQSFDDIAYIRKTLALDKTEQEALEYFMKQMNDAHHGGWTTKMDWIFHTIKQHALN
T5 sequence (P27986 whole entry partner): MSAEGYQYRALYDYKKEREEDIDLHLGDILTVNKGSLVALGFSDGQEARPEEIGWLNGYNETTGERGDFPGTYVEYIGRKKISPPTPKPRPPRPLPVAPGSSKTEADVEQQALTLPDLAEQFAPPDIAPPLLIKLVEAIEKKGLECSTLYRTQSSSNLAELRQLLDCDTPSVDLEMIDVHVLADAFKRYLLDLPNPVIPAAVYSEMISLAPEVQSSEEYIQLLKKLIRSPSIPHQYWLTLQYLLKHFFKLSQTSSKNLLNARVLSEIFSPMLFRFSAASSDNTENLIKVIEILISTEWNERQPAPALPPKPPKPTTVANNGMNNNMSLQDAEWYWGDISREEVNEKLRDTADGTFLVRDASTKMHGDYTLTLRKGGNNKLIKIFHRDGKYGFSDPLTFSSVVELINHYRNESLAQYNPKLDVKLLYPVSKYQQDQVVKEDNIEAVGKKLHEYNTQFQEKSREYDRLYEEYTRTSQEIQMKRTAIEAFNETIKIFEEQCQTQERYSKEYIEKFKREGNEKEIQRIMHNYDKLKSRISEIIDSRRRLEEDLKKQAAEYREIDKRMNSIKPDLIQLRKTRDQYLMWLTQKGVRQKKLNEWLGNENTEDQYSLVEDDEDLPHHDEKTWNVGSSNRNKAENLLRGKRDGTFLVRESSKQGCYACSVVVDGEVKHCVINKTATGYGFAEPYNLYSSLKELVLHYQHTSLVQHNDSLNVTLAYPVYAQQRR
Text: as §1, §2

[1] = test system: Bone marrow derived macrophages (BMDMs), M1 gene expression; assay: M1 marker mRNA in LPS stimulated bone marrow derived macrophages (RT PCR); format: cell-based, murine; details: control = 1; for Ifng relative mRNA expression (M1 gene) / Il1 relative mRNA expression (M1 gene) / Il6 relative mRNA expression (M1 gene) / Nos2 relative mRNA expression (M1 gene) / Tnfa relative mRNA expression (M1 gene): Table 8, LPS polarized murine BMDMs; for Il1 mRNA expression relative to control / Il6 mRNA expression relative to control / Tnfa mRNA expression relative to control: LPS stimulated BMDMs, 24 hours, normalized to GAPDH
Text: […] M2 markers Mmr, Ym1, Fizz1 and Mgl mRNA and M1 markers I11, 116 and Tnfa mRNA was quantitated by RT PCR. Values are mean±SEM (n=3-4). Expression of gene of interest is normalized to GAPDH. […] The data provide direct evidence that Compound 1 can block the immunosuppressive macrophage M2 gene expression and activate the M1 gene expression and therefore activate antitumor innate immune cell differentiation in vitro.
(§3) Relative mRNA expression of IL4 or LPS polarized genes in murine bone marrow derived macrophages (BMDMs) treated with various concentrations of inhibitors in vitro. Conclusion: Compound 3 suppressed in vitro macrophage specific immunosuppressive M2 gene expression markers and augmented macrophage stimulatory immune response M1 genes respectively.

[2] = test system: Bone marrow derived macrophages (BMDMs), M2 gene expression; assay: M2 marker mRNA in IL4 stimulated bone marrow derived macrophages (RT PCR); format: cell-based, murine; details: control = 1; for Arg relative mRNA expression (M2 gene) / Il10 relative mRNA expression (M2 gene) / Mmr relative mRNA expression (M2 gene) / Tgfb relative mRNA expression (M2 gene) / Vegf relative mRNA expression (M2 gene): Table 7, IL4 polarized murine BMDMs; for Arg mRNA expression relative to control / Fizz1 mRNA expression relative to control / Mgl mRNA expression relative to control / Mmr mRNA expression relative to control / Ym1 mRNA expression relative to control: IL4 stimulated BMDMs, 24 hours, normalized to GAPDH
Protocol: Bone marrow derived macrophages (MOs) (BMDMs) were exposed to IL4 or LPS for 24 hours to stimulate the M2 or M1 macrophage transition in presence of Compound 1 and the known SYK inhibitor Bay-61-3606 at 1 μM conc. M2 markers Mmr, Ym1, Fizz1 and Mgl mRNA and M1 markers I11, 116 and Tnfa mRNA was quantitated by RT PCR. Values are mean±SEM (n=3-4). Expression of gene of interest is normalized to GAPDH. […] The data provide direct evidence that Compound 1 can block the immunosuppressive macrophage M2 gene expression and activate the M1 gene expression and therefore activate antitumor innate immune cell differentiation in vitro.
as §3

[3] = 10-point curve, read-out: SYK IC50

SMILES: C[C@H](NC(=O)c1c(N)nn2cccnc12)c1cc2cccc(C#Cc3cnn(C)c3)c2c(=O)n1-c1ccccc1 [IPI549, reference compound]
Ifng relative mRNA expression (M1 gene) ([1]; 500 nM): 1.9 ± 0.249 | Il1 relative mRNA expression (M1 gene) ([1]; 500 nM): 3.9 ± 0.003 | Il6 relative mRNA expression (M1 gene) ([1]; 500 nM): 1.8 ± 0.05 | Nos2 relative mRNA expression (M1 gene) ([1]; 500 nM): 0.83 ± .04 | Tnfa relative mRNA expression (M1 gene) ([1]; 500 nM): 0.984 ± .16 | Arg relative mRNA expression (M2 gene) ([2]; 500 nM): 0.62 ± 0.08 | Il10 relative mRNA expression (M2 gene) ([2]; 500 nM): 0.081 ± .002 | Mmr relative mRNA expression (M2 gene) ([2]; 500 nM): 0.324 ± 0.049 | Tgfb relative mRNA expression (M2 gene) ([2]; 500 nM): 0.568 ± 0.05 | Vegf relative mRNA expression (M2 gene) ([2]; 500 nM): 0.374 ± .132

SMILES: COc1cc(Nc2ncc(F)c(Nc3ccc4c(n3)N(COP(=O)(O)O)C(=O)C(C)(C)O4)n2)cc(OC)c1OC [Compound R788, fostamatinib, reference compound]
Ifng relative mRNA expression (M1 gene) ([1]; 500 nM): 3.2 ± 0.09 | Il1 relative mRNA expression (M1 gene) ([1]; 500 nM): 1.4 ± 0.003 | Il6 relative mRNA expression (M1 gene) ([1]; 500 nM): 1.8 ± 0.05 | Nos2 relative mRNA expression (M1 gene) ([1]; 500 nM): 0.6 ± 0.014 | Tnfa relative mRNA expression (M1 gene) ([1]; 500 nM): 1.4 ± 0.13 | Arg relative mRNA expression (M2 gene) ([2]; 500 nM): 0.352 ± 0.07 | Il10 relative mRNA expression (M2 gene) ([2]; 500 nM): 0.35 ± 0.026 | Mmr relative mRNA expression (M2 gene) ([2]; 500 nM): 0.31 ± 031 | Tgfb relative mRNA expression (M2 gene) ([2]; 500 nM): 0.771 ± .007 | Vegf relative mRNA expression (M2 gene) ([2]; 500 nM): 0.58 ± 0.065

SMILES: O=c1cc(N2CCOCC2)oc2c(-c3ccc4c(c3)OCCO4)csc12 [Compound 0]
IC50 (SYK; note to Table 5, read-out: SYK inhibition IC50): > 50 µM

SMILES: COc1ccc(-c2cc3nccn3c(Nc3ncccc3C(N)=O)n2)cc1OC [Bay 61-3606, Bay-61-3606, reference compound]
Il1 mRNA expression relative to control ([1]; 500 nM): 0.66 | Il6 mRNA expression relative to control ([1]; 500 nM): 0.79 | Tnfa mRNA expression relative to control ([1]; 500 nM): 0.88 | Il1 mRNA expression relative to control ([1]; 1 μM): 0.22 | Il6 mRNA expression relative to control ([1]; 1 μM): 0.31 | Tnfa mRNA expression relative to control ([1]; 1 μM): 0.69 | Il1 mRNA expression relative to control ([1]; 5 μM): 0.11 | Il6 mRNA expression relative to control ([1]; 5 μM): 1.63 | Tnfa mRNA expression relative to control ([1]; 5 μM): 2.25 | Arg mRNA expression relative to control ([2]; 500 nM): 0.35 | Fizz1 mRNA expression relative to control ([2]; 500 nM): 0.05 | Mgl mRNA expression relative to control ([2]; 500 nM): 0.33 | Mmr mRNA expression relative to control ([2]; 500 nM): 0.12 | Ym1 mRNA expression relative to control ([2]; 500 nM): 0.07 | Arg mRNA expression relative to control ([2]; 1 μM): 0.33 | Fizz1 mRNA expression relative to control ([2]; 1 μM): 0.005 | Mgl mRNA expression relative to control ([2]; 1 μM): 0.34 | Mmr mRNA expression relative to control ([2]; 1 μM): 0.12 | Ym1 mRNA expression relative to control ([2]; 1 μM): 0.07 | Arg mRNA expression relative to control ([2]; 5 μM): 0.06 | Fizz1 mRNA expression relative to control ([2]; 5 μM): 0.0013 | Mgl mRNA expression relative to control ([2]; 5 μM): 0.36 | Mmr mRNA expression relative to control ([2]; 5 μM): 0.15 | Ym1 mRNA expression relative to control ([2]; 5 μM): 0.04

More lines, now with the values ahead:

IC50 (SYK; [3]): < 0.1 µM | IC50 (PI3K γ): > 50 µM | IC50 (BRD4-2): > 50 µM | IC50 (BRD4-1): 5 to 50 µM | IC50 (PI3K α): 1 to 5 µM
SMILES: Cc1nn(-c2ccnc(Nc3ccc(-c4csc5c(=O)cc(N6CCNCC6)oc45)cc3)n2)cc1CN1CC(O)C1 [Compound 2, 3-[p-(4-{4-[(3-Hydroxy-1-azetidinyl)methyl]-3-methyl-1H-pyrazol-1-yl}-2-pyrimidinylamino)phenyl]-5-(1-piperazinyl)-4-oxa-1-thia-7-indenone dihydrochloride]

IC50 (SYK; [3]): 0.1 to 1 µM | IC50 (PI3K γ): > 50 µM | IC50 (BRD4-2): > 50 µM | IC50 (BRD4-1): 5 to 50 µM | IC50 (PI3K α): 5 to 50 µM
SMILES: Cc1nn(-c2ccnc(Nc3ccc(-c4csc5c(=O)cc(N6CCNCC6)oc45)cc3)n2)cc1CN1CCC1 [Compound 4, 3-[p-(4-{4-[(1-Azetidinyl)methyl]-3-methyl-1H-pyrazol-1-yl}-2-pyrimidinylamino)phenyl]-5-(1-piperazinyl)-4-oxa-1-thia-7-indenone dihydrochloride]
